Experimental data reported in patent US20110288123A1, “FORMULATIONS FOR THE TREATMENT OF ACUTE HERPES ZOSTER PAIN” (priority 2008, published 2011).

How the values were obtained:
[1] = Stinging test (VAS) on tape-stripped forearm skin of subjects; type: in vivo, human; conditions: for Subjective Stinging Score, mean: 100 mm VAS, n=10, abraded skin
From the text: Topical formulations, particularly those that are to be applied to diseased or damaged skin (e.g. cracks, fissures, open blisters, rash, and the like) may produce the sensory perception of stinging, a distinct discomfort to the user. A stinging test can be used to assess whether the novel topical formulations described herein produce a sensory perception of stinging.
For example, the study is designed to assess the sting potential of four topical formulations using a modification of a lactic acid sting assessment method. The test formulations are evaluated on skin that has been partially damaged (e.g. partial removal of the stratum corneum by tape stripping) to simulate diseased skin. Both a positive control (70% isopropyl alcohol) and a negative control (water) can be included to ascertain each subject's ability to sense the stinging sensation.
After providing informed consent, each subject receives a single dose exposure of 5 μL/cm^2 (40 μL/site) of a test formulation to an 8 cm^2 (2 cm×4 cm) surface abraded test site on their forearms (3 sites/arm), for a 10 minute duration. Skin abrasion is produced by repetitive tape stripping until a TEWL (Trans-Epidermal Water-Loss) measurement of 30 g/m^2/hr, or greater, has been achieved (e.g. tape stripping will be performed 15 times followed by a TEWL measurement. If the TEWL is <30 g/m^2/hr, 10 more strips will be collected, if TEWL is still <30 g/m^2/hr, 10 more tape strip will be collected).
Subjects rated stinging, pain and discomfort at the site using a 100 mm visual analogue scale (VAS), one for each individual sensation, immediately after dosing and at 2, 5 and 10 minutes following topical application. Subjects provided a description of the sensations experienced following application of each test article. The subjects responses, measured in mm, were tabulated for each post-dosing assessment for each test sited.

[2] = Crystallization of lidocaine in formulation with time; type: physicochemical; conditions: lidocaine base formulation; water concentration greater than about 40% w/w
From the text: In this experiment, the water concentration in L504 was maximized in order to develop a more benign vehicle with reduced chance of irritation.

| Compound | Subjective Stinging Score, mean ([1]; 2 Minute after application) | Subjective Stinging Score, mean ([1]; 5 Minute after application) | Subjective Stinging Score, mean ([1]; 10 Minute after application) | Subjective Stinging Score, mean ([1]; Immediate after application) | Subjective Stinging Score, mean ([1]; Maximum score) | stinging response in the stinging test (in words) ([1]; comparison with water application or LidHCL115a base formulation) | crystallization of lidocaine in solution with time [2] |
| --- | --- | --- | --- | --- | --- | --- | --- |
| CC(C)O [70% Isopropanol, Isopropyl Alcohol] | 3.31 mm | 1.87 mm | 1.00 mm | 10.84 mm | 12.13 mm | immediate stinging response is severe, followed by a rapid fall in pain | – |
| CCN(CC)CC(=O)Nc1c(C)cccc1C [lidocaine, Lidocaine base] | – | – | – | – | – | – | tended to crystallized with time |
